{"source": "paper doi:10.1101/2024.12.25.630315", "about": "(bioRxiv, 2024)", "key": {"Nectin-4 [1]": {"target": "T1, Nectin-4 (Homo sapiens, UniProt Q96NY8)", "T1 construct": "host or cells: HT1376, SCaBER, T24, RT112, UC9, UC14 urothelial carcinoma cells; HT1376 xenografts in NSG mice", "T1 sequence (Q96NY8 32-510)": "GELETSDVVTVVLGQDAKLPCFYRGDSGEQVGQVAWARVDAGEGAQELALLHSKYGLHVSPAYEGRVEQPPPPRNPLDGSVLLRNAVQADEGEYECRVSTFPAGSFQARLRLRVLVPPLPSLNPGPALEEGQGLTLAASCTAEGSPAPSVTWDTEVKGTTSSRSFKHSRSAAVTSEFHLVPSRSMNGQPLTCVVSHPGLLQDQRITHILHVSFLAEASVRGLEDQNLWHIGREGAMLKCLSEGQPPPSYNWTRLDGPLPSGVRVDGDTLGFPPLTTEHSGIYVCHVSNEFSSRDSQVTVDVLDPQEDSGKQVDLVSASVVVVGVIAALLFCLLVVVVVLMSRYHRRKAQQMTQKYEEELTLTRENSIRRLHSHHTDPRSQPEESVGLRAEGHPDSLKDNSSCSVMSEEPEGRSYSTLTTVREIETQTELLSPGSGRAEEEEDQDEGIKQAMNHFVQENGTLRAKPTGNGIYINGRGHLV", "assay": "In vitro blocking of [^68Ga]AJ647 uptake by non-radioactive AJ647", "assay_type": "cell-based", "conditions": "pre-incubation with 2 μM non-radioactive AJ647", "protocol": "Figure 3. In vitro specificity of [^68Ga]AJ647 for Nectin-4 in bladder cancer cell lines A) [^68Ga]AJ647 binding (percent incubated activity, %IA) to various bladder cancer cell lines. Cells were incubated with ~37 kBq (~1 μCi) [^68Ga]AJ647 at 4°C for 1 hour. […] B) Flow cytometry analysis of Nectin-4 receptor expression across different bladder cancer cell lines, providing insight into the variability in receptor density among the cell lines. […] Data in figure A and C are represented as mean ± SD. Pearson correlation used in C."}, "Nectin-4 [2]": {"target": "T1, Nectin-4", "assay": "In vivo blocking of [^68Ga]AJ647 uptake by non-radioactive AJ647, HT1376 xenografts", "design": "species or system mouse", "conditions": "1 mg/kg non-radioactive AJ647; PET", "protocol": "Dynamic PET-MR imaging was performed for up to 90 minutes post-injection. […] By 60 minutes, the tumor contrast had further improved due to background radiotracer clearance, as evidenced by the percent injected activity per cubic centimeter (%IA/cc) values derived from [^68Ga]AJ647 PET (Fig. 4B). […] In contrast, minimal uptake was detected in non–Nectin-4-expressing tissues such as muscle.\nMice with tumor volume of ~100–150 mm^3 were injected with ~[…] (7.4 MBq) of [^68Ga]AJ647 in […] of 5% ethanol in saline intravenously and anesthetized under 2.5% isoflurane. PET-CT images were acquired at 60 minutes after radiotracer injection at 5 min/bed in an ARGUS small-animal PET/CT scanner (Sedecal, Madrid, Spain) as described (n=3 unless otherwise noted). PET-MR images were acquired on a simultaneous 7T Bruker PET-MR scanner. Dynamic imaging was conducted to evaluate pharmacokinetics of [^68Ga]AJ647. […] The SUV values were calculated by finding percent of injected activity (%IA) based on a calibration factor obtained from a known radioactive quantity, then normalizing by mice weight. […] For change in accessible Nectin-4 levels following EV treatment, ΔSUV was calculated by subtracting baseline (pre-treatment) uptake from post-therapy uptake of [^68Ga]AJ647. Target engagement was quantified by normalizing this change by initial SUV in same subject controls. […]"}}, "data": [{"smiles": "CSCC[C@@H]1NC(=O)[C@@H]2CSCCC(=O)N3CN(CN(C3)C(=O)CCSC[C@H](NC(=O)CCOCCOCCOCCOCCOCCOCCOCCOCCOCCOCCOCCOCCNC(=O)CN3CCN(CC(=O)O)CCN(CC(=O)O)CC3)C(=O)N3CCC[C@H]3C(=O)N[C@@H](Cc3cccc4ccccc34)C(=O)N[C@@H](CC(=O)O)C(=O)N2)C(=O)CCSC[C@@H](C(N)=O)NC(=O)[C@H](Cc2c[nH]c3ccccc23)NC(=O)[C@@H]2C[C@@H](O)CN2C(=O)[C@@H]2CCCN2C(=O)[C@H]([C@@H](C)O)NC(=O)[C@H](CO)NC(=O)[C@H](Cc2c[nH]c3ccccc23)NC(=O)[C@@H](CC(=O)O)NC(=O)[C@H](CCCCNC(=N)N)NC1=O", "note": "[AJ647]", "values": [{"measurement": "effect of blocking dose on [^68Ga]AJ647 uptake in bladder cancer cell lines", "setting": "Nectin-4 [1]", "result": "significantly reduced radiotracer uptake"}, {"measurement": "effect on [^68Ga]AJ647 tracer uptake in HT1376 xenografts", "setting": "Nectin-4 [2]", "result": "reduction in tracer uptake"}]}]}
